From US11414384B2, “P300/CBP hat inhibitors” (Constellation Pharmaceuticals, Inc., priority 2018, dated 2022)

Target: p300 HAT domain (residues 1287-1666) (Homo sapiens (Human), UniProt Q09472)
Experiment: p300 HAT SPA assay (scintillation proximity assay, acetylation of biotinylated H3(1-21) peptide)
Format: biochemical
Conditions: p300 HAT domain; average of at least 2 replicate titrations; read-out: P300 HAT SPA IC50
Description: In a typical experiment the p300 HAT inhibitory activity of the compounds described herein was determined in accordance with the following experimental method.
The expressed protein was purified by Ni2+ affinity, followed by anion exchange chromatography. Appropriate fractions were pooled and buffer exchanged into 20 mM Hepes pH 7.5, 150 mM NaCl, and 1 mM TCEP.
35 μL of the reaction volume was transferred to a 384-well streptavidin FlashPlate (PerkinElmer) using a Bravo liquid handler (Velocity 11) and incubated for 1.5 hr at RT. […] Data were analyzed in Genedata to determine inhibitor IC50 values.

Sequence of p300 HAT domain (residues 1287-1666) (Q09472 1287-1666): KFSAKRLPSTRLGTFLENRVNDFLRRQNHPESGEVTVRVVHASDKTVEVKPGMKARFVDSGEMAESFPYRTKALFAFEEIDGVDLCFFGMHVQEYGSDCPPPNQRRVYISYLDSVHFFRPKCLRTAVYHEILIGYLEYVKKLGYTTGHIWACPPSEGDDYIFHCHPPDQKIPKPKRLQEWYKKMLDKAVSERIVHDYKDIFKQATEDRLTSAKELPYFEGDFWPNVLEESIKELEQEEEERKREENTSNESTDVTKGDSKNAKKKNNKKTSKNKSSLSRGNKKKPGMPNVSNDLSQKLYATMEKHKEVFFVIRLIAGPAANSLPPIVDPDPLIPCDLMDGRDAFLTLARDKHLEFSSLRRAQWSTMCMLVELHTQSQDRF

| Compound | IC50 |
| --- | --- |
| Cn1cc(-c2ccc3c(C(=O)C(NCCc4ccc(C(N)=O)cc4Cl)c4ccccc4)c[nH]c3c2)cn1 (racemic) [143 racemic, 3-chloro-4-(2-((2-(6-(1-methyl-1H-pyrazol-4-yl)-1H-indol-3-yl)-2-oxo-1-phenylethyl)amino)ethyl)benzamide] | 0.266 µM |
| NS(=O)(=O)c1ccc(CCNC(C(=O)c2c[nH]c3cc(C(F)(F)F)ccc23)c2ccccc2)cc1 (single isomer, unassigned) [1 Isomer 1] | 14.1 µM |
| NS(=O)(=O)c1ccc(CCNC(C(=O)c2c[nH]c3cc(C(F)(F)F)ccc23)c2ccccc2)cc1 (single isomer, unassigned) [1 Isomer 2] | > 30 µM |
| O=C(c1c[nH]c2ccccc12)C(NCCc1ccccc1Cl)c1ccccc1 (single isomer, unassigned) [3 Isomer 1] | > 60 µM |
| O=C(c1c[nH]c2ccccc12)C(NCCc1ccccc1Cl)c1ccccc1 (single isomer, unassigned) [3 Isomer 2] | 6.39 µM |
| O=C(c1c[nH]c2ccccc12)C(NCCc1cccc(Cl)c1)c1ccccc1 (single isomer, unassigned) [4 Isomer 1] | > 60 µM |
| O=C(c1c[nH]c2ccccc12)C(NCCc1cccc(Cl)c1)c1ccccc1 (single isomer, unassigned) [4 Isomer 2] | 4.4 µM |
| O=C(c1c[nH]c2ccccc12)C(NCCc1ccc(Cl)cc1)c1ccccc1 (single isomer, unassigned) [5 Isomer 1] | 8.76 µM |
| O=C(c1c[nH]c2ccccc12)C(NCCc1ccc(Cl)cc1)c1ccccc1 (single isomer, unassigned) [5 Isomer 2] | 0.867 µM |
| COc1ccccc1CCNC(C(=O)c1c[nH]c2ccccc12)c1ccccc1 (single isomer, unassigned) [6 Isomer 1] | > 60 µM |
| COc1cccc(CCNC(C(=O)c2c[nH]c3ccccc23)c2ccccc2)c1 (single isomer, unassigned) [7 Isomer 1] | 7.35 µM |
| COc1ccc(CCNC(C(=O)c2c[nH]c3ccccc23)c2ccccc2)cc1 (single isomer, unassigned) [8 Isomer 1] | 43.2 µM |
| NS(=O)(=O)c1ccc(CCNC(C(=O)c2c[nH]c3c(Cl)cccc23)c2ccccc2)cc1 (single isomer, unassigned) [15 Isomer 1] | > 60 µM |
| Cc1[nH]c2ccccc2c1C(=O)C(NCCc1ccc(S(N)(=O)=O)cc1)c1ccccc1 (single isomer, unassigned) [16 Isomer 1] | 49.2 µM |
| Cn1cc(C(=O)C(NCCc2ccc(S(N)(=O)=O)cc2)c2ccccc2)c2ccccc21 (single isomer, unassigned) [17 Isomer 1] | 7.99 µM |
| Cn1cc(C(=O)C(NCCc2ccc(S(N)(=O)=O)cc2)c2ccccc2)c2ccccc21 (single isomer, unassigned) [17 Isomer 2] | 1.85 µM |
| O=C(c1c[nH]c2ccccc12)C(NCCN1CCOCC1)c1ccccc1 (single isomer, unassigned) [18 Isomer 1] | > 60 µM |
| O=C(c1c[nH]c2ccccc12)C(NCCN1CCOCC1)c1ccccc1 (single isomer, unassigned) [18 Isomer 2] | > 60 µM |
| O=C(c1c[nH]c2ccccc12)C(NCCc1ccc(Cl)cc1Cl)c1ccccc1 (single isomer, unassigned) [19 Isomer 1] | > 60 µM |
| O=C(c1c[nH]c2ccccc12)C(NCCc1ccc(Cl)c(Cl)c1)c1ccccc1 (single isomer, unassigned) [20 Isomer 1] | > 60 µM |
| O=C(c1c[nH]c2ccccc12)C(NCCc1ccc(Cl)c(Cl)c1)c1ccccc1 (single isomer, unassigned) [20 Isomer 2] | 3.07 µM |
| O=C(c1c[nH]c2ccccc12)C(NCCc1ccc(C(F)(F)F)cc1)c1ccccc1 (single isomer, unassigned) [21 Isomer 2] | 32.8 µM |
| O=C(c1c[nH]c2ccccc12)C(NCCc1ccc(F)cc1)c1ccccc1 (single isomer, unassigned) [22 Isomer 1] | > 60 µM |
| CC(NCCc1ccc(Cl)cc1)C(=O)c1c[nH]c2ccccc12 (single isomer, unassigned) [23 Isomer 1] | > 60 µM |
